Converted amounts (≈) assume the structure as drawn. Where two headings read alike, the source gives them in different places.

In one series the test system is Gram-positive bacteria. Put plainly: Broth microdilution, summary over reference Gram-positive bacteria. It is filed as cell-based. The note with it: for antibacterial activity in words: reference Gram-positive bacteria / studied bacteria. The gist of the method:
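Following EUCAST and CLSI guidance, growth inhibition is measured in broth across final compound levels of 1000 down to 0.488 µg/mL. Cidal endpoints come from spotting each well onto agar; three independent repeats.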
A general note: In broth dilution the organism is exposed to a series of concentrations in liquid medium.

In a further series the test system is Gram-negative bacteria. Put plainly: Broth microdilution, summary over reference Gram-negative bacteria. It is filed as cell-based. The settings on record: for MIC: range over the reference Gram-negative bacteria; for antibacterial activity in words: reference Gram-negative bacteria. From the text: Procedures of in vitro antimicrobial assays are described in Supplementary Materials.
2. Microbiology – in vitro antimicrobial activity assays […]
using the broth microdilution method according to the European Committee on Antimicrobial Susceptibility Testing (EUCAST) and Clinical and Laboratory Standards Institute guidelines against a panel of reference and clinical or saprophytic strains of mi croorganisms, including the Gram-positive bacteria: Staphylococcus aureus ATCC 43300 (Methi-cillin Resistant S. aureus – MRSA), Staphylococcus aureus ATCC 29213 (Methicillin Susceptible S. aureus – MSSA), Staph-ylococcus epidermidis ATCC 12228, Micrococcus luteus ATCC 10240, Bacillus subtilis ATCC 6633 and Bacillus cereus ATCC 10876), Gram-negative bacteria: Bordetella bronchiseptica ATCC 4617, Escherichia coli ATCC 25922, Klebsiella pneumoniae ATCC 13883, Proteus mirabilis ATCC 12453, Salmonella typhimurium ATCC 14028 and Pseudomonas aeruginosa ATCC 9027, and fungi belonging to yeasts: Candida albicans ATCC 10231, Candida albicans ATCC 2091, Candida parapsilosis ATCC 22019, Candida glabrata ATCC 90030 and Candida krusei ATCC 14243. The microorganisms belonging to ATCC originated from American Type Culture Collection, routinely used for the evaluation of antimicrobials. All the used microbial cultures were first subcultured on nutrient agar or Sabouraud agar at 35°C for 18-24 h or 30°C for 24-48 h for bacteria […]
The surface of Mueller-Hinton agar (for bacteria) and RPMI 1640 with MOPS (for fungi) were inoculated with the suspensions of bacterial or fungal species. Microbial suspensions were prepared in sterile saline with an optical density of McFarland standard scale 0.5. The samples containing the compounds were dissolved in dimethyl sulfoxide (DMSO).
Furthermore, the bacterial and fungal suspensions put onto the Petri dishes with solid media containing 2 mg/mL of the tested compounds followed were incubated at 37°C for 24h and 30°C for 48h for bacteria and fungi, respectively. […]
Subsequently, MIC (Minimal Inhibitory Concentration) of the compounds was examined by the microdilution broth method, using their two-fold dilutions in Mueller-Hinton broth (for bacteria) and RPMI 1640 broth with MOPS (for fungi) prepared in the 96-well polystyrene plates. […] After incubation, the MIC was assessed spectrophotometrically as the lowest concentration of the […]
Appropriate DMSO, growth and sterile controls were carried out. […] The MBC/MFC was determined by removing the culture used for the MIC determination from each well and spotted onto the appro-priate agar medium. […] The lowest com-pounds concentration with no visible growth observed was assessed as a bactericidal/fungicidal concentration. […]

The nature of another series: MTT cytotoxicity assay. It is filed as cell-based, mouse. The settings on record: mouse, L929 fibroblast cells; L929, 48 h culture, dose of 25 μM; read-out: increased viability. The protocol:
Among all the newly synthesized compounds, four compounds designated as: 14, 20, 21 and 27 were selected for further testing of their cytotoxic properties at the doses of 10, 25, 50, 75 and 100 µM. The cytotoxic properties of the above compounds were tested on the cancer cell lines, i.e., A549 (ECACC 86012804) (non-small-cell lung cancer), T47D (ECACC 85102201) (breast cancer), HeLa (ATCC® CCL-2™) (cervical cancer) and normal line L929 (NCTC clone 929, ATCC® CCL-1™) (mouse fibroblasts) using the MTT test for 24- and 48 h cultures.
A549 (ECACC 86012804) (non-small-cell lung cancer) and T47D (ECACC 85102201) (breast cancer) were obtained from ECACC and propagated in Dulbecco’s Minimal Essential Medium, supplemented with 2 mM of glutamine, antibiotics ([…] streptomycin, 1% of 100 U/L penicillin) and 10% Fetal Bovine Serum. HeLa (ATCC® CCL-2™) (cervical cancer) and L929 (NCTC clone 929, ATCC® CCL-1™) (mouse fibroblasts) cell lines were obtained from ATCC and propagated in the Eagle Minimal Essential Medium supplemented with antibiotics ([…] streptomycin, 1% of 100 U/L penicillin) and with 10% and 5% FBS, respectively. The cell line was routinely grown in 75 cm^2 tissue culture flasks and kept in an incubator (humidified atmosphere of 5% CO2 at 37 °C). All examined cell lines were tested against mycoplasma contamination with microbiological assays.
The cell viability of tested compounds (14, 20, 21 and 27) was assessed by the MTT assay. In brief, the exponentially growing cells were plated in 100 μL/well in 96-well plates. After 24 h culturing, the cells were treated with different concentrations of compounds (range 10–100 μM). After 24 and 48 h of incubation, 10 μL of 5 mg/mL MTT was added to each well and the plates were incubated at 37 °C for additional 4 h. The medium was subsequently removed, the purple-colored precipitates of formazan were dissolved in 100 μL of DMSO. The color absorbance was recorded at 570 nm using a BioTek model EPOCH ELISA plate reader. All experiments were performed in triplicate. The absorbance values were in the range of linearity of the Lambert–Beer law.
A general note: Tetrazolium dyes change colour on reduction, which living cells bring about.

Setting [1] is: range over the reference Gram-positive bacteria.
Where [2] appears, read: range over the reference Gram-positive bacteria, read-out: MBC.
Where [3] appears, read: range over the reference Gram-positive bacteria, read-out: MIC.

By MBC is commonly meant the smallest concentration meeting the test's criterion for killing. What is called MIC is the lowest concentration that inhibits growth of the organism. As for `O=C(N/N=C/c1cc(Br)cc(Br)c1O)c1cccc(I)c1` [Compound 21, N-[(3,5-dibromo-2-hydroxyphenyl)methylidene]-3-iodobenzohydrazide], in the series on Gram-positive bacteria, the MBC was in the range of 3.91 to 62.5 µg/mL (≈ 7.46 to 119 µM), the MIC lay within 3.91 to 15.6 µg/mL (≈ 7.46 to 29.8 µM) and the “antibacterial activity in words” value is on record as “strong or very strong”. The MBC/MIC with Gram-positive bacteria (setting [1]) was 1–4.

In the case of `O=C(N/N=C/c1cc(Cl)cc(I)c1O)c1ccc(I)cc1` [Compound 27, N-[(5-chloro-2-hydroxy-3-iodophenyl)methylidene]-4-iodobenzohydrazide], the results for the MIC in the series with Gram-negative bacteria and with Gram-positive bacteria (setting [3]) were 500 µg/mL (≈ 950 µM) and 31.2 to 125 µg/mL (≈ 59.4 to 237 µM), respectively. For the same molecule, the “antibacterial activity in words” value in the series with Gram-negative bacteria is on record as “moderate (moderate bioactivity with MIC from 126 to 500 µg/mL)”; in the series with Gram-positive bacteria, “good (good bioactivity as a MIC in the range 26 – 125 µg/mL)”. Moreover, in the series on Gram-positive bacteria (setting [1]), the MBC/MIC is listed as 1–4. Further, the MBC in the series with Gram-positive bacteria (setting [2]) was 31.2 to 500 µg/mL (≈ 59.4 to 950 µM).

Consider `O=C(N/N=C/c1cc(Cl)cc(I)c1O)c1cccc(I)c1` [Compound 20, N-[(5-chloro-2-hydroxy-3-iodophenyl)methylidene]-3-iodobenzohydrazide], for which, in the series on Gram-negative bacteria, the MIC lay in the range of 500 to 1000 µg/mL (≈ 950 to 1900 µM) and the “antibacterial activity in words” value is “mild or moderate”. In the series on Gram-positive bacteria, the MBC lay within 3.91 to 62.5 µg/mL (≈ 7.43 to 119 µM), the MIC was in the range of 1.95 to 7.81 µg/mL (≈ 3.7 to 14.8 µM) and the “antibacterial activity in words” value is listed as “very strong (very strong bioactivity as a MIC < 10 µg/mL)”. In addition, the MBC/MIC with Gram-positive bacteria (setting [1]) is 1–4.

As a reminder, the viability is the share of living cells, or the viability signal relative to a control. As to `O=C(N/N=C/c1cc(I)cc(I)c1O)c1ccccc1I` [Compound 14, N-[(3,5-diiodo-2-hydroxyphenyl)methylidene]-2-iodobenzohydrazide], the MBC/MIC against Gram-positive bacteria (setting [1]) is reported as 1–4. Besides, in the series with Gram-positive bacteria (setting [2]), the MBC lay in the range of 125 to 1000 µg/mL (≈ 202 to 1620 µM). The MIC in the series with Gram-positive bacteria (setting [3]) was in the range of 62.5 to 500 µg/mL (≈ 101 to 809 µM). For the same molecule, in the series on Gram-positive bacteria, the “antibacterial activity in words” value is “good or moderate”. Besides, in “MTT cytotoxicity assay”, the viability at 48 h, 25 µM was over 100%.
